From ChEMBL document CHEMBL1158839, “Dichotomins J and K, vasodilator cyclic peptides from Stellaria dichotoma” (J Nat Prod, 2005) come the findings set out here.

Active and inactive are the calls of the source. No cut-off for these calls is given here.

In assay [1] the test system is Aorta. Kind of assay: Vasorelaxant activity against norepinephrine-induced contraction in Wistar rat thoracic aorta at 100 uM. It counts as functional, tissue-based.
Assay [2] relates to Aorta. Kind of assay: Vasorelaxant activity against norepinephrine-induced contraction in Wistar rat thoracic aorta at 30 uM. It is filed as functional, tissue-based.

As for `CC[C@@H](C)[C@@H]1NC(=O)[C@H](C(C)C)NC(=O)[C@H](Cc2ccc(O)cc2)NC(=O)[C@H](Cc2ccc(O)cc2)NC(=O)[C@@H]2CCCN2C(=O)[C@H]([C@H](C)CC)NC(=O)[C@H](C(C)C)NC(=O)[C@H](C)NC(=O)[C@@H]2CCCN2C1=O`, in the assay on Aorta [1], the outcome was Active.
Regarding `CC[C@@H](C)[C@@H]1NC(=O)CNC(=O)[C@H](C)NC(=O)[C@H](Cc2ccc(O)cc2)NC(=O)[C@H](CC(C)C)NC(=O)[C@H](Cc2ccccc2)NC1=O`, the outcome with Aorta [2] was Active.
